Literature values, collected in patent publication US20030162721A1, “PHARMACEUTICAL COMPOSITION CONTAINING PEPTICHEMIO” (priority 1997, published 2003).

Test system: RPMI 8322 melanoma cells

## L-prolyl-m-sarcolysyl-L-p-fluorophenylalanine [PSF]
Relative to m-sarcolysine
  times more toxic than m-sarcolysine: 28 times
Relative to melphalan
  times more toxic than melphalan: 35 times
